Source: patent publication US12385017B2, “Acute respiratory distress syndrome therapeutic agent” (LTT Bio-Pharma Co., Ltd., priority 2015, dated 2025)
Read-outs that look alike come from different tables or passages of the source.

What was measured:
[1] = test system: CLP-induced systemic inflammation; test: CLP-induced systemic inflammation (plasma inflammatory cytokines); type: in vivo, mouse; settings: male ICR mice, drug once before CLP, plasma 8 hours after CLP
Protocol: (§1) A mouse was anesthetized with pentobarbital (10 mg/kg, intraperitoneally) and a small abdominal midline incision was made to expose the cecum thereof. Subsequently, the cecum was ligated at approximately 2 cm with a silk thread and punctured twice with an 18 G needle (manufactured by Terumo Corporation). Then, the abdomen was closed.
Sham mice (sham operation group) were subjected to the same operation except the ligation and puncture of the cecum. […]
The levels of BUN and creatinine in blood were measured by using a DRI-CHEM slide and LabAssay creatinine, respectively, according to the protocols. The level of inflammatory cytokines in plasma was measured by an Elisa kit according to the protocol.
A CLP operation or a sham operation was performed on male ICR mice.
Drugs were administered once before the CLP operation or the sham operation. […] Sivelestat (mg/kg) was intraperitoneally administered. EBD (Evans blue dye) (30 mg/kg) was administered intravenously 8 hours after the CLP operation. Plasma samples were prepared and the level of inflammatory cytokines in plasma was measured.
A CLP operation or a sham operation was performed on a male ICR mouse. […] A plasma sample was prepared 8 hours after the CLP investigation and the levels of BUN and creatinine (Test A) and the level of inflammatory cytokines (Test B) were measured.
A CLP operation or a sham operation was performed on a male ICR mouse. NAC (mg/kg) was administered intraperitoneally or unmodified SOD (kU/kg) was administered intravenously, once before the CLP operation. A plasma sample was prepared 8 hours after the CLP operation and the levels of BUN and creatinine (Test A) and the level of inflammatory cytokines (Test B) were measured.

[2] = test system: mice subjected to cecal ligation and puncture technique (CLP technique); settings: male ICR mice
Protocol: as §1
(§2) Sham mice (sham operation group) were subjected to the same operation except the ligation and puncture of the cecum.

[3] = test system: CLP-induced multiple organ failure; test: CLP-induced multiple organ failure (Evans blue vascular permeability, BUN, creatinine); type: in vivo, mouse; settings: male ICR mice, drug once before CLP, plasma 8 hours after CLP
Protocol: as §1, §2
A mouse was anesthetized with isoflurane and 1 mg/kg LPS (in 0.9% NaCl) was administered thereto intratracheally once using a micropipette (P200). […]
For a quantitative examination of the permeability of an organ, Evans blue (EBD) (30 mg/kg) was administered to the mouse intravenously 2 hours before sacrificing the mouse. […] The specimens were centrifuged to obtain supernatants and the quantity of EBD was determined by using absorbance at 620 nm of the specimens.
The levels of BUN and creatinine in blood were measured by using a DRI-CHEM slide and LabAssay creatinine, respectively, according to the protocols. The level of inflammatory cytokines in plasma was measured by an Elisa kit according to the protocol. […]
Drugs were administered once before the CLP operation or the sham operation. […] Two hours later, EBD was extracted from the kidney and liver and measured. […]

[4] = test system: lipopolysaccharide (LPS)-induced lung injury
Protocol: A mouse was anesthetized with isoflurane and 1 mg/kg LPS (in 0.9% NaCl) was administered thereto intratracheally once using a micropipette (P200). […] In the case of sivelestat, 10 or 100 mg/kg of sivelestat (in 0.9% NaCl) was administered intraperitoneally using a 21 G needle.
(§3) For a quantitative examination of the permeability of an organ, Evans blue (EBD) (30 mg/kg) was administered to the mouse intravenously 2 hours before sacrificing the mouse. Tissue (lung, liver, and kidney) specimens were cut into pieces and incubated with a […] for 24 hours at 60° C. The specimens were centrifuged to obtain supernatants and the quantity of EBD was determined by using absorbance at 620 nm of the specimens.
BALF was collected by inserting a cannula into a trachea and performing lavage twice with 1 mL of 50 U/mL heparin (in sterile 0.9% NaCl). Usually, about 1.8 mL of BALF was collected from each mouse. The amount of proteins in BALF was determined by a Bradford assay. The level of inflammatory cytokines was determined by the Elisa kit as described above.
A tissue specimen was fixed in 10% neutral buffered formalin for 24 hours and then embedded in paraffin before being cut into a section 4 μm thick. The section was stained firstly with Mayer's hematoxylin and secondly with 1% alcoholic eosin solution (H&E staining). The specimen was mounted with malinol (mounting medium) and scanned using a NanoZoomer-XR digital slide scanner (Hamamatsu Photonics K.K.).
All the scanned images were analyzed using NDP-view2 software (Hamamatsu Photonics K.K.) and Image J software.
LPS (1 mg/kg) or vehicle (control) was administered once into a trachea of a male ICR mouse.
ESD (Evans blue dye) (30 mg/kg) was injected intravenously 6 hours after a CLP operation. Two hours later, ESD was extracted from the lung and liver and the amount thereof was measured (Test A).
A section of the lung tissue was prepared 24 hours after the LPS administration and was subjected to a histopathological examination (H&E staining) (Test B). The lesion area was determined by ImageJ software (Test C). BALF was prepared 48 hours after the LPS administration and the levels of protein (Test D) and inflammatory cytokines (Test E) were determined.

[5] = test system: mechanical ventilator (MV)-induced lung injury; test: Mechanical ventilator (MV)-induced lung injury and change of lung mechanics; type: in vivo, mouse; settings: male ICR mice
Protocol: A mechanical ventilator for small animals was used to induce ventilator-induced lung injury (VILI). After a mouse was anesthetized with pentobarbital (10 mg/kg, intraperitoneally), tracheotomy was performed and an 8 mm metal tube was inserted into the trachea thereof. The mouse was mechanically ventilated with a tidal volume of 17.5 mL/kg, a positive end-expiratory pressure of 0 cm H2O, and a rate of 150 breaths/min.
Total respiratory elastance was measured every 30 minutes for 120 minutes by a snapshot technique.
The data were analyzed by using FlexiVent software (version 5.3 SCIREQ).
as §3
Firstly, the wet weight of a lung was measured to determine a wet-to-dry weight ratio of the lung. Then, the lung was dried at 60° C. overnight and reweighed to obtain the dry weight thereof.
A tissue specimen was fixed in 10% neutral buffered formalin for 24 hours and then embedded in paraffin before being cut into a section 4 μm thick. […]
All the scanned images were analyzed using NDP-view2 software (Hamamatsu Photonics K.K.) and Image J software. […]
EBD (Evans blue dye) (30 mg/kg) was simultaneously administered intravenously, extracted from the lung 2 hours after the MV treatment, and measured (Test A).
The wet-to-dry weight ratio of the lung was determined 2 hours after the MV treatment (Test B). […]
The lesion area was determined by ImageJ software (Test D).
Total respiratory elastance was measured every 30 minutes for 120 minutes (Test E). […]
The wet-to-dry weight ratio of the lung was determined 2 hours after the MV treatment (Tests A and C). Total respiratory elastance was measured every 30 minutes for 120 minutes (Tests B and D).

[6] = test system: reactive oxygen species (ROS); test: In vivo imaging of reactive oxygen species (ROS), CLP model; set-up: species or system mouse; settings: drug once before CLP, L-012 75 mg/kg 4 hours after the CLP operation
Protocol: In the case of the CLP model, the mouse was euthanized 2 minutes after injection of L-012, subjected to abdominal midline incision, and imaged (five-minute intervals).
Male ICR mice were subjected to a CLP operation. Dexamethasone (200 μg/mouse) was administered intravenously once before the CLP operation (Tests A and C). Sivelestat (100 mg/kg) was administered intraperitoneally (Tests B and D). […] The sum intensity of ROS was determined by SlideBook6 software (Tests C and D).

[7] = test system: reactive oxygen species (ROS)
Protocol: Measurement of reactive oxygen species (ROS) in a mouse was performed by in vivo imaging analysis with some modifications.
An imaging system (Lumazone, in vivo imaging system, SHOSHIN EM, Okazaki, Japan) including a chamber equipped with an electron multiplying CCD camera was used. L-012 (in saline), which is a luminescent probe, was administered to the mouse intravenously at 75 mg/kg.
In the case of the LPS and MV models, the mouse was euthanized 5 minutes after injection of L-012, and the lung thereof was anatomized promptly and imaged (five-minute intervals).
The data were analyzed by using SlideBook6 software (Intelligent Imaging Innovations, Inc., Denver, CO).
CLP operation (Tests A and B), LPS administration (Tests C and D), and MV treatment (Tests E and F) were performed as described above. […] A luminescent probe (L-012) (75 mg/kg) was administered 4 hours after the CLP operation, 6 hours after the LPS administration, and 2 hours after the MV treatment. An abdominal cavity (Test A) or a lung (Tests C and E) of the mouse was imaged using a Lumazone in vivo imaging system. The sum intensity of reactive oxygen species (ROS) was determined by Slide Book6 software (Tests B, D, and F).

[8] = BALF 48 hours after the LPS administration (FIG. 4E)

Row | Compound | IL-6 level in plasma [1] | TNF-α level in plasma [1] | survival rate ([2]; administration 1, 12, 24, and 48 hours after the CLP operation (FIG. 1B)) | survival rate ([2]; administration immediately before the CLP operation and 12, 24, and 48 hours after (FIG. 1A)) | BUN (blood urea nitrogen) level [3] | creatinine level [3] | protein in BALF ([4]; BALF 48 hours after the LPS administration (FIG. 4D)) | IL-6 in BALF [4, 8] | IL-10 in BALF [4, 8] | TNF-α in BALF [4, 8] | histopathological examination of lung tissue (H&E staining) ([4]; lung section 24 hours after the LPS administration (FIG. 4B)) | lesion area of lung (ImageJ) ([4]; lung section 24 hours after the LPS administration (FIG. 4C)) | lung edema (wet-to-dry weight ratio of the lung) ([5]; drug once immediately before MV, 2 hours after the MV treatment) | lung injury (histopathological examination, H&E staining; lesion area) ([5]; lung section 2 hours after the MV treatment (FIG. 5C, D)) | lung elastance (total respiratory elastance) ([5]; measured every 30 minutes for 120 minutes) | reactive oxygen species in the abdominal cavity (sum intensity, L-012) [6] | reactive oxygen species in the lung (sum intensity, L-012) ([7]; LPS, PC-SOD i.v. once before LPS, L-012 6 hours after the LPS administration) | reactive oxygen species in the lung (sum intensity, L-012) ([7]; MV, PC-SOD i.v. once before MV, L-012 2 hours after the MV treatment)
1 | CC(C)(C)C(=O)Oc1ccc(S(=O)(=O)Nc2ccccc2C(=O)NCC(=O)O)cc1 [sivelestat, sivelestat sodium hydrate, reference compound] | failed in suppressing an increase | failed in suppressing an increase |  |  |  |  |  |  |  |  |  |  |  |  |  |  |  | 
2 | lecithinized superoxide dismutase [PC-SOD] | suppressed an increase | suppressed an increase | increased the survival rate | increased the survival rate in a dose-dependent manner | suppressed an increase | suppressed an increase | suppressed an increase of protein | suppressed an increase | suppressed an increase | suppressed an increase | suppressed alveolar hemorrhage, leukocyte infiltration, and lung interstitial edema | reduced a lung disorder area | suppressed lung edema | suppressed lung injury | suppressed an increase in lung elastance | suppressed an increase of reactive oxygen species | suppressed an increase of reactive oxygen species | suppressed an increase of reactive oxygen species
